Measurements: patent US11560384B2, “Benzonorbornadiene derivatives and reactions thereof” (University of Utah Research Foundation, priority 2017, dated 2023)
Where “and” joins values, the source holds several entries; their conditions need not be identical. Equal values may be shown once. Entries after “also recorded” stand apart in the source; their conditions may differ.

What was measured:
[1] = Second-order reaction kinetics with tetrazine DPTz (UV-Vis absorbance at 525 nm); type: physicochemical; details: for Second-order rate constant (k2): with DPTz, 37° C., λabs = 525 nm
Method: (§1) UV-VIS photospectrometic kinetic measurements were performed on a BioTek Synergy HT Microplate Reader (BioTek, USA) in a 96-well plate formate. In further detail, for analysis of reaction kinetics in DMSO and DMSO/H2O (9:1, v/v), stock solutions of benzonorbornadiene derivatives 1-3 (60 mM or 12.5 mM) and tetrazine (15 mM or 2.5 mM) in DMSO were prepared. Final solutions containing tetrazine (2 mM or 0.25 mM) and 1-3 (20 mM, 30 mM, 40 mM and 50 mM or 2.5 mM, 3.75 mM, 5 mM, 6.25 mM) were prepared in 96-well plates and thoroughly mixed at 37° C. for UV-Vis measurements. For analysis of reaction kinetics in DMSO/PBS (3:2, v/v), final solutions containing tetrazine (0.05 mM) and 1-2 (0.5 mM), tetrazine alone (0.05 mM) were prepared in 96-well plates and thoroughly mixed at 37° C. for UV-Vis measurements. The reactions were monitored at 525 nm, which is a local absorbance maximum of tetrazine. All kinetic experiments were run in triplicates. Pseudo-first order curve fitting was performed with Origin 8.0 software using the exponential formula: y=A1×e^kx+y0.

A549 lung cancer cells = test: Cell proliferation / cytotoxicity assay (CellTiter-Glo); type: cell-based; details: compound alone
Method: Cell proliferation assays were performed on an Envision 2104 Multilabel Reader (PerkinElmer, USA). Specifically, A549 lung cancer cells (ATCC, USA) were maintained in a humidified CO2 (5%) incubator at 37° C. in DMEM (Thermo Fisher, USA) supplemented with 10% fetal bovine serum in the presence of 1% Penicillin-Streptomycin-Glutamine (Thermo Fisher, USA) and 0.2% Normocin (InvivoGen, USA). The cells were plated in 96-well TC treated plates (PerkinElmer, USA) at a 5000 cells/well density 24 h prior to the experiment. Prodrug 5, compound 2 (2 mM in DMSO) and PEG-Tz (40 mM in DMSO) were serially diluted in pre-warmed culture medium. Prodrug 5 and compound 2 are in a series of final concentrations ranging from 0.001 to 10 μM with 200 μM, 100 μM, 50 μM, 25 μM PEG-Tz before the experiment and added to the wells (100 μL final volume per well). Doxorubicin was used as the positive control with same series of concentrations ranging from 0.001 to 10 μM. […] After 72 h incubation at 37° C., cell proliferation was assessed by a CellTiter-Glo® viability assay. Lyophilized CellTiter Glo Substrate (Promega, USA) was dissolved in the CellTiter Glo Buffer to get CellTiter-Glo® Reagent, and from which 100 μL was added to each well. After 15 min incubation at 25° C., the medium was gently measured with Envision 2104 Multilabel Reader (PerkinElmer, USA) to get the luminescent based on quantitation of the ATP present, an indicator of metabolically active cells. The proliferation assay was performed in triplicate (n=3). EC50 values were derived from the normalized cell growth and corresponding sigmoidal curves were fitted and generated with Origin 8.0.

[2] = Second-order reaction kinetics with tetrazine PEG-Tz (UV-Vis absorbance at 525 nm); type: physicochemical; details: 37° C., λabs = 525 nm
Method: as §1

[3] = Stability in human serum (PBS:Serum 1:1), HPLC; type: in vitro ADME; details: 50 μM in PBS:Serum (1:1), 37° C., 5 up to 48 h, 2 up to 7 days
Method: Stability studies of prodrug 5 in PBS:Serum were performed as follows. Stock solutions of prodrug 5 (2.5 mM) in DMSO were prepared. Aliquots of 5 stock solution (20 μL), 0.01 M PBS (480 μL) and human serum (500 μL) (Sigma-Aldrich, USA) were combined to give final concentrations of 50 μM for the 5 in PBS: Serum (1:1, v/v). The sample was thoroughly mixed and incubated at 37° C. in the dark and subsequently a 50 μL aliquot of the sample was taken at indicated time points (5 min, 6 h, 24 h and 48 h) and quenched by 200 μL ice cold acetonitrile, followed by centrifugation at 13300 rpm for 5 min. The supernatant was injected and analyzed by HPLC at 480 nm.
Stability studies of compound 2 were performed as follows. Stock solutions of 2 (2.5 mM) in DMSO were prepared. Aliquots of 2 stock solution (20 μL), 0.01 M PBS (480 μL) and human serum (500 μL) (Sigma-Aldrich, USA) were combined to give final concentrations of 50 μM for the 2 in PBS: Serum (1:1, v/v). The sample was thoroughly mixed and incubated at 37° C. in the dark and subsequently a 50 μL aliquot of the sample was taken at indicated time points (5 min, 6 h, 24 h, 48 h, 72 h and 7 days) and quenched by 200 μL ice cold acetonitrile, followed by centrifugation at 13300 rpm for 5 min. The supernatant was injected and analyzed by HPLC at 317 nm.

Compound	Second-order rate constant (k2) ([1]; DMSO)	Second-order rate constant (k2) ([2]; 60% DMSO/PBS (3:2))	Second-order rate constant (k2) ([2]; 90% DMSO/H2O) [M⁻¹ s⁻¹]	Second-order rate constant (k2) ([1]; 90% DMSO/H2O)	other results
7-oxo-BNBD [compound 6, reference compound]	0.176 M⁻¹ s⁻¹ and 0.176 ± 0.004 M⁻¹ s⁻¹				
COc1cccc2c1C(=O)c1c(O)c3c(c(O)c1C2=O)C[C@@](O)(C(=O)CO)C[C@@H]3O[C@H]1C[C@H](N)[C@H](O)[C@H](C)O1 [Doxorubicin, reference compound]					EC50 (A549 lung cancer cells; Homo sapiens, A549): 0.088 µM; EC50 (A549 lung cancer cells; Homo sapiens, A549, 72 hour incubation at 37° C.): 0.088 ± 0.031 µM
COCCOCCOCCNC(=O)c1ccc(-c2nncnn2)cc1 [PEG-Tz, N-(2-(2-(2-methoxyethoxy)ethoxy)ethyl)-4-(1,2,4,5-tetrazin-3-yl) benzamide]					EC50 (A549 lung cancer cells; 72 hour incubation at 37° C.): > 200 µM; Cytotoxicity in A549 cells (A549 lung cancer cells; tested concentration range (PEG-Tz 0.02 to 200 μM; 5 0.001 to 10 μM)): no obvious toxicity; also recorded: no cytotoxicity
O=C(Nc1ccc([N+](=O)[O-])cc1)OCC12C=CC(O1)c1ccccc12 (stereo not drawn) [compound 1]	0.015 M⁻¹ s⁻¹ and 0.015 ± 0.008 M⁻¹ s⁻¹	0.190 M⁻¹ s⁻¹ and 0.190 ± 0.029 M⁻¹ s⁻¹	0.058 ± 0.0003	0.028 M⁻¹ s⁻¹ and 0.028 ± 0.0003 M⁻¹ s⁻¹	Decrease of reaction rate with DPTz relative to 7-oxo-BNBD (6) ([1]; DMSO): ~12 fold
CC(=O)N1C2C=CC1(COC(=O)Nc1ccc([N+](=O)[O-])cc1)c1ccccc12 (stereo not drawn) [compound 2]	0.010 M⁻¹ s⁻¹ and 0.010 ± 0.0004 M⁻¹ s⁻¹	0.135 M⁻¹ s⁻¹ and 0.135 ± 0.010 M⁻¹ s⁻¹	0.020 ± 0.0007	0.017 M⁻¹ s⁻¹ and 0.017 ± 0.002 M⁻¹ s⁻¹	Stability in human serum [3]: completely stable until the end of the analysis at one week; Unspecific payload release in human serum [3]: No free p-Nitroaniline or p-Nitroaniline-containing side products were observed; also recorded: no traces of pNA were formed; also recorded: No background liberation of reporter molecules was observed
CC(C)(C)OC(=O)N1C2C=CC1(COC(=O)Nc1ccc([N+](=O)[O-])cc1)c1ccccc12 (stereo not drawn) [compound 3, tert-butyl 1-((((4-nitrophenyl)carbamoyl)oxy)methyl)-1,4-dihydro-1,4-epiminonaphthalene-9-carboxylate]	0.0044 M⁻¹ s⁻¹ and 0.0044 ± 0.00009 M⁻¹ s⁻¹			0.0084 M⁻¹ s⁻¹ and 0.0084 ± 0.0016 M⁻¹ s⁻¹	
